Here are results for 51 compounds from patent US8518980B2, “Treatment of Duchenne muscular dystrophy” (Summit Corporation PLC, priority 2006, dated 2013).

In one assay the test system is Utrophin A promoter linked to a luciferase reporter gene (H2K/mdx/Utro A reporter cell line). Put plainly: Luciferase reporter assay (murine H2K cells). Particulars: Mus musculus, H2K mdx. On the technique in general: A reporter such as luciferase makes a cellular process visible.
As to `Cc1ccc2nc(-c3ccc(N)cc3)sc2c1` [Example 664, 4-(6-methylbenzo[d]thiazol-2-yl)aniline], the activity at 10 µM was 201 to 300%.

As to `O=C(Nc1ccc(-c2nc3ccccc3[nH]2)cc1)c1cccs1` [Example 585, N-(4-(1H-Benzo[d]imidazol-2-yl)phenyl)thiophene-2-carboxamide], the activity at 10 µM is over 401%.

Consider `O=C(Nc1ccc(-c2nc3ccccc3[nH]2)cc1)c1ccco1` [Example 562, N-(4-(1H-benzo[d]imidazol-2-yl)phenyl)furan-2-carboxamide], for which the activity at 10 µM lay within 301 to 400%.

For `COc1ccc(-c2nc3cc(NC(C)=O)ccc3o2)cc1Cl` [Example 519, N-(2-(3-chloro-4-methoxyphenyl)benzo[d]oxazol-5-yl)acetamide], the activity at 10 µM fell in the range of 201 to 300%.

In the case of `Cc1ccc2[nH]c(-c3ccc(NC(=O)c4ccco4)cc3)nc2c1` [Example 580, N-(4-(5-Methyl-1H-benzo[d]imidazol-2-yl)phenyl)furan-2-carboxamide], the activity at 10 µM was in the range of 301 to 400%.

On to `CNS(=O)(=O)c1ccc2nc(NC(=O)c3cccs3)sc2c1` [Example 687, N-(6-(N-methylsulfamoyl)benzo[d]thiazol-2-yl)thiophene-2-carboxamide], for which the activity at 10 µM lay in the range of 201 to 300%.

Take `Cc1ccc2nc(-c3ccc(C(F)(F)F)cc3)oc2c1` [Example 611, 6-Methyl-2-(4-(trifluoromethyl)phenyl)benzo[d]oxazole]: the activity at 10 µM was 301 to 400%.

For `Nc1ccc(-c2nc3ccccc3[nH]2)cc1` [Example 475, 4-(1H-benzo[d]imidazol-2-yl)aniline], the activity at 10 µM is under 200%.

For the compound `Cc1ccc2[nH]c(-c3ccccc3N)nc2c1` [Example 554, 2-(5-methyl-1H-benzo[d]imidazol-2-yl)aniline], the activity at 10 µM lay within 301 to 400%.

In the case of `COc1cccc(-c2nc3ccccc3[nH]2)c1` [Example 600, 2-(3-Methoxyphenyl)-1H-benzo[d]imidazole], the activity at 10 µM lay within 201 to 300%.

With `CC(=O)Nc1ccc2[nH]c(-c3ccco3)nc2c1` [Example 534, N-(2-(furan-2-yl)-1H-benzo[d]imidazol-5-yl)acetamide], the activity at 10 µM was under 200%.

As to `Cc1cccc(-c2nc3cc([N+](=O)[O-])ccc3o2)c1` [Example 533, 5-nitro-2-m-tolylbenzo[d]oxazole], the activity at 10 µM lay within 201 to 300%.

`O=C(Nc1ccccc1-c1nc2ccccc2[nH]1)c1ccc(Cl)cc1Cl` [Example 500, N-(2-(1H-benzo[d]imidazol-2-yl)phenyl)-2,4-dichlorobenzamide]: the activity at 10 µM was under 200%.

Take `Cn1c(-c2ccc([N+](=O)[O-])cc2)nc2ccccc21` [Example 472, 1-methyl-2-(4-nitrophenyl)-1H-benzo[d]imidazole]: the activity at 10 µM was under 200%.

`Cc1ccc(OCc2nc3ccccc3[nH]2)cc1` [Example 531, 2-(p-tolyloxymethyl)-1H-benzo[d]imidazole]: the activity at 10 µM lay within 201 to 300%.

Consider `O=[N+]([O-])c1ccc(Cl)c(-c2nc3ccccc3s2)c1` [Example 524, 2-(2-chloro-5-nitrophenyl)benzo[d]thiazole], for which the activity at 10 µM was under 200%.

Turning to `c1ccc2sc(-c3ccc4c(c3)OCO4)nc2c1` [Example 608, 2-(Benzo[d][1,3]dioxol-5-yl)benzo[d]thiazole], the activity at 10 µM is over 401%.

Turning to `COc1ccc(-c2nc3cc([N+](=O)[O-])ccc3[nH]2)cc1OC` [Example 520, 2-(3,4-dimethoxyphenyl)-5-nitro-1H-benzo[d]imidazole], the activity at 10 µM is under 200%.

With `O=C(Nc1ccc(-c2nc3ccccc3s2)cc1)C1CC1` [Example 661, N-(4-(benzo[d]thiazol-2-yl)phenyl)cyclopropanecarboxamide], the activity at 10 µM fell in the range of 301 to 400%.

Take `COCc1nc2ccccc2[nH]1` [Example 499, 2-(methoxymethyl)-1H-benzo[d]imidazole]: the activity at 10 µM is under 200%.

As to `Clc1ccc(SCc2ccc(-c3nc4ccccc4[nH]3)cc2)cc1` [Example 460, 2-(4-((4-chlorophenylthio)methyl)phenyl)-1H-benzo[d]imidazole], the activity at 10 µM is under 200%.

`Nc1cc(-c2nc3ccccc3[nH]2)ccc1Cl` [Example 653, 5-(1H-benzo[d]imidazol-2-yl)-2-chloroaniline]: the activity at 10 µM is 301 to 400%.

Consider `OCc1cn(-c2ccccc2)nc1-c1cc2ccccc2o1` [Example 674, (3-(benzofuran-2-yl)-1-phenyl-1H-pyrazol-4-yl)methanol], for which the activity at 10 µM was in the range of 201 to 300%.

As to `CCC(=O)Nc1ccc2oc(-c3cccc(C)c3)nc2c1` [Example 668, N-(2-m-tolylbenzo[d]oxazol-5-yl)propionamide], the activity at 10 µM fell in the range of 201 to 300%.

For the compound `Nc1ccc2[nH]c(-c3ccc(Cl)cc3)nc2c1` [Example 560, 2-(4-chlorophenyl)-1H-benzo[d]imidazol-5-amine], the activity at 10 µM is 301 to 400%.

Take `Cc1ccc2nc(-c3ccc(N)cc3)oc2c1` [Example 506, 4-(6-methylbenzo[d]oxazol-2-yl)aniline]: the activity at 10 µM is under 200%.

In the case of `CCc1ccc2oc(-c3cccc(N)c3)nc2c1` [Example 502, 3-(5-ethylbenzo[d]oxazol-2-yl)aniline], the activity at 10 µM lay in the range of 201 to 300%.

For the compound `CCOc1ccc(-c2nc3cc(N)ccc3o2)cc1` [Example 549, 2-(4-ethoxyphenyl)benzo[d]oxazol-5-amine], the activity at 10 µM is under 200%.

As for `CC(=O)Nc1cccc(-c2ccc3oc(-c4ccc(Cl)cc4)nc3c2)c1` [Example 575, N-(3-(2-(4-chlorophenyl)benzo[d]oxazol-5-yl)phenyl)acetamide], the activity at 10 µM was over 401%.

As to `Cc1ccc(-c2nc3cc(N)ccc3o2)cc1Cl` [Example 526, 2-(3-chloro-4-methylphenyl)benzo[d]oxazol-5-amine], the activity at 10 µM fell in the range of 201 to 300%.

Turning to `Cc1ccc(C)c(OCc2nc3ccccc3[nH]2)c1` [Example 548, 2-((2,5-dimethylphenoxy)methyl)-1H-benzo[d]imidazole], the activity at 10 µM is under 200%.

In the case of `Nc1ccc(-c2nc3ccc(N)cc3o2)cc1` [Example 544, 2-(4-aminophenyl)benzo[d]oxazol-6-amine], the activity at 10 µM lay within 201 to 300%.

Regarding `Cc1ccc2sc(NC(=O)NC(=O)c3c(Cl)cccc3Cl)nc2c1` [Example 462, 2,6-dichloro-N-(5-methylbenzo[d]thiazol-2-ylcarbamoyl)benzamide], the activity at 10 µM was under 200%.

Take `CC(=O)Oc1ccc(C(=O)Nc2ccc(-c3nc4ccccc4[nH]3)cc2)cc1` [Example 655, 4-(4-(1H-benzo[d]imidazol-2-yl)phenylcarbamoyl)phenyl acetate]: the activity at 10 µM fell in the range of 301 to 400%.

In the case of `Cc1cc2nc(-c3cc(N)ccc3Cl)oc2cc1C` [Example 646, 4-chloro-3-(5,6-dimethylbenzo[d]oxazol-2-yl)aniline], the activity at 10 µM was 301 to 400%.

Turning to `Nc1ccc2oc(-c3ccc(Cl)c(Cl)c3)nc2c1` [Example 480, 2-(3,4-dichlorophenyl)benzo[d]oxazol-5-amine], the activity at 10 µM fell in the range of 201 to 300%.

On to `Cc1cc(-c2nc3cc(N)ccc3o2)ccc1Br` [Example 649, 2-(4-bromo-3-methylphenyl)benzo[d]oxazol-5-amine], for which the activity at 10 µM lay in the range of 301 to 400%.

As for `CCn1c(C)nc2cc(C(=O)Nc3ccccc3)ccc21` [Example 615, 1-ethyl-2-methyl-N-phenyl-1H-benzo[d]imidazole-5-carboxamide], the activity at 10 µM is over 401%.

On to `CCNC(=O)Nc1ccc2[nH]c(C(C)(C)C)cc2c1` [Example 576, 1-(2-tert-butyl-1H-indol-5-yl)-3-ethylurea], for which the activity at 10 µM is under 200%.

For `Cc1ccccc1C(=O)Nc1nc2ccccc2[nH]1` [Example 648, N-(1H-benzo[d]imidazol-2-yl)-2-methylbenzamide], the activity at 10 µM was 301 to 400%.

Regarding `COc1ccc(-c2nc3ccccc3o2)cc1` [Example 583, 2-(4-Methoxyphenyl)benzo[d]oxazole], the activity at 10 µM lay in the range of 301 to 400%.

For the compound `Cc1ccc2[nH]c(-c3ccc([N+](=O)[O-])cc3)nc2c1` [Example 605, 5-Methyl-2-(4-nitrophenyl)-1H-benzo[d]imidazole], the activity at 10 µM is 301 to 400%.

For the compound `O=C(Nc1ccc(-c2nc3ccccc3[nH]2)cc1)c1ccccc1` [Example 497, N-(4-(1H-benzo[d]imidazol-2-yl)phenyl)benzamide], the activity at 10 µM is under 200%.

As for `CC(C)c1ccc2oc(-c3ccc(N)cc3O)nc2c1` [Example 565, 5-amino-2-(5-isopropylbenzo[d]oxazol-2-yl)phenol], the activity at 10 µM lay in the range of 301 to 400%.

Regarding `CC1=NN(c2nc3ccccc3s2)C(=O)/C1=C(/C)NC1CC1` [Example 546, (Z)-1-(benzo[d]thiazol-2-yl)-4-(1-(cyclopropylamino)ethylidene)-3-methyl-1H-pyrazol-5(4H)-one], the activity at 10 µM was under 200%.

Turning to `COc1ccc(CSc2nc3ccccc3[nH]2)cc1` [Example 640, 2-(4-methoxybenzylthio)-1H-benzo[d]imidazole], the activity at 10 µM fell in the range of 301 to 400%.

As to `Cc1ccc(NC(=O)Nc2nc3ccccc3s2)cc1` [Example 637, 1-(benzo[d]thiazol-2-yl)-3-p-tolylurea], the activity at 10 µM is 301 to 400%.

The same assay, now with this note: Table 1; luciferase level relative to control; final concentration of 10 μM.
Turning to `O=C(O)c1cccc(-c2ccc3oc(-c4ccc(Cl)cc4)nc3c2)c1` [Example 313, 3-(2-(4-chlorophenyl)benzo[d]oxazol-5-yl)benzoic acidd], the Activity entry is listed as “+ (Up to 200% relative to control)”.

Turning to `Clc1ccc(-c2nc3cc4c(cc3o2)OCO4)cc1Cl` [Example 361, 2-(3,4-chlorophenyl)-5,6-methylenedioxybenzoxazole], the Activity entry was “+ (Up to 200% relative to control)”.

For the compound `CC(=O)c1ccc2oc(-c3ccc(Cl)c(Cl)c3)nc2c1` [Example 453, 1-(2′-(3″,4″-Dichlorophenyl)benzo[d]oxazol-5′-yl)ethanone], the Activity entry is “++++ (Above 401% relative to control)”.

The same assay, now with this note: Table 2; luciferase level relative to control; final concentration of 10 μM.
Turning to `COc1ccc(OCc2nc3ccccc3[nH]2)cc1` [Example 473, 2-((4-methoxyphenoxy)methyl)-1H-benzo[d]imidazole], the Activity result was “++ (Between 201% and 300% relative to control)”.
